Columns and labels:
[1] = Pharmacokinetic study in rats after single oral administration of POH and TMZ (plasma, UPLC-MS/MS); format: in vivo, Male Wistar rats; conditions: rat plasma, single oral dose POH 47 mg/kg and TMZ 2 mg/kg, n = 6
Description: Approximately 200 μL of whole blood was collected from the tail vein of each rat. Samples were centrifuged at 3500 rpm for 10 min at 20°C to separate the plasma. Plasma samples were then subjected to liquid–liquid extraction with ACN. The mixture was centrifuged again at 3500 rpm for 10 min at 4°C. The resulting supernatant was filtered through hydrophobic 0.22 μm membranes and transferred to autosampler vials. A 2 μL aliquot of each sample was injected into the UPLC‐MS/MS system for analysis.
Thawed plasma samples (50 μL) were also prepared by protein precipitation. Each sample was mixed with 50 μL of IS solution and 900 μL of ACN, followed by centrifugation at 3500 rpm for 10 min at 20°C. The supernatants were filtered and analyzed as described. All dilutions were performed based on analyte concentration to ensure compliance with the method's validated dynamic range.
The pharmacokinetic and biodistribution study was conducted in accordance with ethical guidelines and approved by the Animal Ethics Committee of the Universidade Estadual do Centro‐Oeste, Brazil (Protocol No. 026/2023). Male Wistar rats (n = 6 for pharmacokinetics; n = 4 for biodistribution), weighing approximately 200 g, were housed under controlled environmental conditions (12 h light/dark cycle, 35% relative humidity, and temperature of 23°C ± 2°C). Animals had free access to food and water, which were withheld 10 h prior to drug administration and resumed 2 h afterward.
Each animal received a single oral dose of POH (47 mg/kg) and TMZ (2 mg/kg). For pharmacokinetic profiling, blood samples were collected via the tail vein into heparinized tubes at predefined time points: 0.5, 1, 2, 4, 8, 12, and 24 h post‐administration. For biodistribution analysis, a separate cohort of rats (n = 4) was sacrificed 4 h after dosing. Organs, including the brain, liver, lungs, kidneys, and spleen, were collected, homogenized, and stored at −20°C for subsequent quantification, as detailed in Section 3.2.
Pharmacokinetic parameters were calculated using non‐compartmental analysis with the PKSolver plugin for Microsoft Excel. The following parameters were determined: area under the plasma concentration–time curve from 0 to 24 h (AUC0–24h), maximum plasma concentration (Cmax), time to reach Cmax (tmax), elimination half‐life (t1/2), volume of distribution (VD), and total clearance (CL).

[2] = Stability of analytes in rat plasma and tissue matrices (freeze-thaw, bench-top, autosampler); format: physicochemical; conditions: for Stability (ER %) Autosampler: 10°C for 24 h; for Stability (ER %) Bench-top: room temperature for 6 h; for Stability (ER %) Freeze/thaw: three freeze–thaw cycles over 24-h intervals
Description: QC samples were prepared by spiking blank rat plasma with PA, AIC, and TMZ at three concentration levels: 30, 80, and 200 ng/mL. Internal standards (IS1 and IS2) were added to each sample at a final concentration of 100 ng/mL. Whole blood was obtained from untreated anesthetized rats that were euthanized as part of the study protocol. Blood samples were collected into heparinized tubes and centrifuged at 3500 rpm for 10 min at 20°C to separate plasma. Organs including the brain, lungs, kidneys, spleen, and liver were promptly excised and homogenized using a Marconi mechanical tissue homogenizer (5 mm probe) in phosphate‐buffered saline (PBS, pH 7.4) at a 1:5 (w/v) tissue‐to‐buffer ratio.
For each matrix sample, 50 μL of homogenate or plasma was mixed with 50 μL of internal standard (IS) solution (100 ng/mL), followed by the addition of the respective working solution to reach the target analyte concentration. The volume was adjusted to 1 mL using an appropriate solvent mixture. Samples were centrifuged again at 3500 rpm for 10 min at 4°C. The resulting supernatants were filtered through 0.22 μm membrane filters prior to chromatographic analysis. All calibration standards and QC samples were prepared freshly on the day of analysis to minimize analyte degradation.
The stability of PA, AIC, and TMZ in rat plasma was assessed under the following conditions using low, medium, and high QC levels: (1) Freeze–thaw stability: Three freeze–thaw cycles over 24‐h intervals; (2) Bench‐top stability: Storage at room temperature for 6 h; (3) Autosampler stability: Storage at 10°C for 24 h. Analytes were considered stable if the relative error (RE%) remained within ±15% (Tiwari and Tiwari [2010]).

[3] = rat brain homogenate, 200 ng/mL
[4] = rat kidney homogenate, 30 ng/mL
[5] = rat kidney homogenate, 80 ng/mL
[6] = rat kidney homogenate, 200 ng/mL
[7] = rat liver homogenate, 200 ng/mL
[8] = rat spleen homogenate, 30 ng/mL
[9] = rat spleen homogenate, 80 ng/mL
[10] = rat spleen homogenate, 200 ng/mL

Cn1nnc2c(C(N)=O)ncn2c1=O [TMZ, Temozolomide]
Cmax ([1]; male, Wistar): 1450 ng/mL
Tmax ([1]; male, Wistar): 1 h
half-life ([1]; male, Wistar): 18.4 h
k el ([1]; male, Wistar): 1.03e-05 s⁻¹
AUC(0-t) ([1]; male, Wistar, read-out: AUC0–24h): 8170 ng·h/mL
CL [1]: 1.5 mL/min/kg
Vd [1]: 1.75 L/kg
Stability (ER %) Autosampler ([2]; rat brain homogenate, 30 ng/mL): 1.65%
Stability (ER %) Bench-top ([2]; rat brain homogenate, 30 ng/mL): 1.48%
Stability (ER %) Freeze/thaw ([2]; rat brain homogenate, 30 ng/mL): 9.76%
Stability (ER %) Autosampler ([2]; rat brain homogenate, 80 ng/mL): 1.89%
Stability (ER %) Bench-top ([2]; rat brain homogenate, 80 ng/mL): 7.73%
Stability (ER %) Freeze/thaw ([2]; rat brain homogenate, 80 ng/mL): 0.84%
Stability (ER %) Autosampler [2, 3]: 4.29%
Stability (ER %) Bench-top [2, 3]: 2.32%
Stability (ER %) Freeze/thaw [2, 3]: 4.42%
Stability (ER %) Autosampler [2, 4]: 1.41%
Stability (ER %) Bench-top [2, 4]: 1.99%
Stability (ER %) Freeze/thaw [2, 4]: 3.69%
Stability (ER %) Autosampler [2, 5]: 3.14%
Stability (ER %) Bench-top [2, 5]: 8.22%
Stability (ER %) Freeze/thaw [2, 5]: 9.44%
Stability (ER %) Autosampler [2, 6]: 4.92%
Stability (ER %) Bench-top [2, 6]: 3.77%
Stability (ER %) Freeze/thaw [2, 6]: 4.52%
Stability (ER %) Autosampler ([2]; rat liver homogenate, 30 ng/mL): 3.82%
Stability (ER %) Bench-top ([2]; rat liver homogenate, 30 ng/mL): 1.49%
Stability (ER %) Freeze/thaw ([2]; rat liver homogenate, 30 ng/mL): 5.67%
Stability (ER %) Autosampler ([2]; rat liver homogenate, 80 ng/mL): 4.07%
Stability (ER %) Bench-top ([2]; rat liver homogenate, 80 ng/mL): 6.41%
Stability (ER %) Freeze/thaw ([2]; rat liver homogenate, 80 ng/mL): 8.17%
Stability (ER %) Autosampler [2, 7]: 3.33%
Stability (ER %) Bench-top [2, 7]: 1.57%
Stability (ER %) Freeze/thaw [2, 7]: 1.54%
Stability (ER %) Autosampler ([2]; rat lung homogenate, 30 ng/mL): 4.82%
Stability (ER %) Bench-top ([2]; rat lung homogenate, 30 ng/mL): 7.99%
Stability (ER %) Freeze/thaw ([2]; rat lung homogenate, 30 ng/mL): 6.24%
Stability (ER %) Autosampler ([2]; rat lung homogenate, 80 ng/mL): 3.02%
Stability (ER %) Bench-top ([2]; rat lung homogenate, 80 ng/mL): 9.32%
Stability (ER %) Freeze/thaw ([2]; rat lung homogenate, 80 ng/mL): 7.19%
Stability (ER %) Autosampler ([2]; rat lung homogenate, 200 ng/mL): 2.51%
Stability (ER %) Bench-top ([2]; rat lung homogenate, 200 ng/mL): 5.54%
Stability (ER %) Freeze/thaw ([2]; rat lung homogenate, 200 ng/mL): 1.34%
Stability (ER %) Autosampler ([2]; rat plasma, 30 ng/mL): 12.84%
Stability (ER %) Bench-top ([2]; rat plasma, 30 ng/mL): 1.39%
Stability (ER %) Freeze/thaw ([2]; rat plasma, 30 ng/mL): 3.94%
Stability (ER %) Autosampler ([2]; rat plasma, 80 ng/mL): 5.39%
Stability (ER %) Bench-top ([2]; rat plasma, 80 ng/mL): 3.94%
Stability (ER %) Freeze/thaw ([2]; rat plasma, 80 ng/mL): 4.29%
Stability (ER %) Autosampler ([2]; rat plasma, 200 ng/mL): 13.24%
Stability (ER %) Bench-top ([2]; rat plasma, 200 ng/mL): 1.94%
Stability (ER %) Freeze/thaw ([2]; rat plasma, 200 ng/mL): 9.83%
Stability (ER %) Autosampler [2, 8]: 2.64%
Stability (ER %) Bench-top [2, 8]: 6.41%
Stability (ER %) Freeze/thaw [2, 8]: 5.86%
Stability (ER %) Autosampler [2, 9]: 2.61%
Stability (ER %) Bench-top [2, 9]: 1.35%
Stability (ER %) Freeze/thaw [2, 9]: 1.35%
Stability (ER %) Autosampler [2, 10]: 2.22%
Stability (ER %) Bench-top [2, 10]: 1.05%
Stability (ER %) Freeze/thaw [2, 10]: 3.86%
